Legend:
late watergrass = experiment: Test Example 1: herbicidal activity, application before weed generation under submerged conditions (Table 16, symbol A); type: in vivo, late watergrass (Echinochloa oryzicola); conditions: 320 g/ha applied herbicide
In short: (§1)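 Emulsion formulation, water-diluted to set dose, was put onto the flooded surface (4 cm depth, alluvial soil) the same day weeds were sown and 2.5-leaf rice transplanted. After 3 weeks at 25-30 °C under glass, each species was rated 0 (≤5% kill) to 5 (≥90% kill).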

Japanese bulrush = experiment: Test Example 1: herbicidal activity, application before weed generation under submerged conditions (Table 16, symbol B); type: in vivo, Japanese bulrush (Schoenoplectus juncoides); conditions: 320 g/ha applied herbicide
In short: as §1

oval-leafed pondweed = experiment: Test Example 1: herbicidal activity, application before weed generation under submerged conditions (Table 16, symbol C); type: in vivo, oval-leafed pondweed (Monochoria vaginalis); conditions: 320 g/ha applied herbicide
In short: as §1

barnyard grass [1] = experiment: Test Example 3: herbicidal effect by foliage application, Wagner pot (Table 18, symbol H); type: in vivo, barnyard grass (Echinochloa crus-galli); conditions: amount of applied herbicide 320 g/ha
In short: (§2)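 Plants were sown in alluvial soil held under 0.1–0.5 cm standing water and grown 14 days in a greenhouse at 25–30 °C. An emulsifiable formulation, water-diluted to the set dose, was then sprayed onto the foliage, and effects were scored three weeks later using previously defined criteria.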

Chinese sprangletop = experiment: Test Example 3: herbicidal effect by foliage application, Wagner pot (Table 18, symbol D); type: in vivo, chinese sprangletop (Leptochloa chinensis); conditions: amount of applied herbicide 320 g/ha
In short: as §2

rice flat sedge = experiment: Test Example 3: herbicidal effect by foliage application, Wagner pot (Table 18, symbol E); type: in vivo, rice flat sedge (Cyperus iria); conditions: amount of applied herbicide 320 g/ha
In short: as §2

southern crabgrass [2] = experiment: Test Example 4: herbicidal effect by soil treatment (Table 19, symbol F); type: in vivo, southern crabgrass (Digitaria ciliaris); conditions: amount of applied herbicide 320 g/ha
In short: (§3)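 In this soil treatment, the formulated compound reached the seeds only through the soil: seeds were buried about 1.5 cm deep in sterilized diluvial soil, then the diluted emulsion was sprayed over the surface. After three weeks at 25° C. to 30° C. in a greenhouse, effects were graded on criteria from an earlier test.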

green foxtail [3] = experiment: Test Example 4: herbicidal effect by soil treatment (Table 19, symbol G); type: in vivo, green foxtail (Setaria viridis); conditions: amount of applied herbicide 320 g/ha
In short: as §3

barnyard grass [4] = experiment: Test Example 4: herbicidal effect by soil treatment (Table 19, symbol H); type: in vivo, barnyard grass (Echinochloa crus-galli); conditions: amount of applied herbicide 320 g/ha
In short: as §3

wild oat [5] = experiment: Test Example 4: herbicidal effect by soil treatment (Table 19, symbol I); type: in vivo, wild oat (Avena fatua); conditions: amount of applied herbicide 320 g/ha
In short: as §3

blackgrass [6] = experiment: Test Example 4: herbicidal effect by soil treatment (Table 19, symbol J); type: in vivo, blackgrass (Alopecurus myosuroides); conditions: amount of applied herbicide 320 g/ha
In short: as §3

Italian ryegrass [7] = experiment: Test Example 4: herbicidal effect by soil treatment (Table 19, symbol K); type: in vivo, Italian ryegrass (Lolium multiflorum); conditions: amount of applied herbicide 320 g/ha
In short: as §3

windgrass [8] = experiment: Test Example 4: herbicidal effect by soil treatment (Table 19, symbol L); type: in vivo, windgrass (Apera spica-venti); conditions: amount of applied herbicide 320 g/ha
In short: as §3

velvetleaf [9] = experiment: Test Example 4: herbicidal effect by soil treatment (Table 19, symbol M); type: in vivo, velvetleaf (Abutilon theophrasti); conditions: amount of applied herbicide 320 g/ha
In short: as §3

redroot pigweed [10] = experiment: Test Example 4: herbicidal effect by soil treatment (Table 19, symbol N); type: in vivo, redroot pigweed (Amaranthus retroflexus); conditions: amount of applied herbicide 320 g/ha
In short: as §3

lambsquarters [11] = experiment: Test Example 4: herbicidal effect by soil treatment (Table 19, symbol O); type: in vivo, lambsquarters (Chenopodium album); conditions: amount of applied herbicide 320 g/ha
In short: as §3

chickweed [12] = experiment: Test Example 4: herbicidal effect by soil treatment (Table 19, symbol P); type: in vivo, common chickweed (Stellaria media); conditions: amount of applied herbicide 320 g/ha
In short: as §3

persian speedwell [13] = experiment: Test Example 4: herbicidal effect by soil treatment (Table 19, symbol R); type: in vivo, Persian speedwell (Veronica persica); conditions: amount of applied herbicide 320 g/ha
In short: as §3

southern crabgrass [14] = experiment: Test Example 5: herbicidal effect by foliage application, plastic box (Table 20, symbol F); type: in vivo, southern crabgrass (Digitaria ciliaris); conditions: foliage application, AAH 320 g/ha, evaluated three weeks after application
In short: (§4)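 Plants were sown into sterilized diluvial soil under about 1.5 cm cover and kept in a greenhouse at 25° C. to 30° C. Fourteen days on, foliage received an even spray of the diluted emulsion. Herbicidal or crop effect was judged three weeks afterwards.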

green foxtail [15] = experiment: Test Example 5: herbicidal effect by foliage application, plastic box (Table 20, symbol G); type: in vivo, green foxtail (Setaria viridis); conditions: foliage application, AAH 320 g/ha, evaluated three weeks after application
In short: as §4

barnyard grass [16] = experiment: Test Example 5: herbicidal effect by foliage application, plastic box (Table 20, symbol H); type: in vivo, barnyard grass (Echinochloa crus-galli); conditions: foliage application, AAH 320 g/ha, evaluated three weeks after application
In short: as §4

wild oat [17] = experiment: Test Example 5: herbicidal effect by foliage application, plastic box (Table 20, symbol I); type: in vivo, wild oat (Avena fatua); conditions: foliage application, AAH 320 g/ha, evaluated three weeks after application
In short: as §4

blackgrass [18] = experiment: Test Example 5: herbicidal effect by foliage application, plastic box (Table 20, symbol J); type: in vivo, blackgrass (Alopecurus myosuroides); conditions: foliage application, AAH 320 g/ha, evaluated three weeks after application
In short: as §4

Italian ryegrass [19] = experiment: Test Example 5: herbicidal effect by foliage application, plastic box (Table 20, symbol K); type: in vivo, Italian ryegrass (Lolium multiflorum); conditions: foliage application, AAH 320 g/ha, evaluated three weeks after application
In short: as §4

windgrass [20] = experiment: Test Example 5: herbicidal effect by foliage application, plastic box (Table 20, symbol L); type: in vivo, windgrass (Apera spica-venti); conditions: foliage application, AAH 320 g/ha, evaluated three weeks after application
In short: as §4

velvetleaf [21] = experiment: Test Example 5: herbicidal effect by foliage application, plastic box (Table 20, symbol M); type: in vivo, velvetleaf (Abutilon theophrasti); conditions: foliage application, AAH 320 g/ha, evaluated three weeks after application
In short: as §4

redroot pigweed [22] = experiment: Test Example 5: herbicidal effect by foliage application, plastic box (Table 20, symbol N); type: in vivo, redroot pigweed (Amaranthus retroflexus); conditions: foliage application, AAH 320 g/ha, evaluated three weeks after application
In short: as §4

lambsquarters [23] = experiment: Test Example 5: herbicidal effect by foliage application, plastic box (Table 20, symbol O); type: in vivo, lambsquarters (Chenopodium album); conditions: foliage application, AAH 320 g/ha, evaluated three weeks after application
In short: as §4

chickweed [24] = experiment: Test Example 5: herbicidal effect by foliage application, plastic box (Table 20, symbol P); type: in vivo, common chickweed (Stellaria media); conditions: foliage application, AAH 320 g/ha, evaluated three weeks after application
In short: as §4

persian speedwell [25] = experiment: Test Example 5: herbicidal effect by foliage application, plastic box (Table 20, symbol R); type: in vivo, Persian speedwell (Veronica persica); conditions: foliage application, AAH 320 g/ha, evaluated three weeks after application
In short: as §4

Row | Structure (SMILES) | Herbicidal effect on A: late watergrass (grade 0-5) (late watergrass) | Herbicidal effect on B: Japanese bulrush (grade 0-5) (Japanese bulrush) | Herbicidal effect on C: oval-leafed pondweed (grade 0-5) (oval-leafed pondweed) | herbicidal effect on H: barnyard grass (barnyard grass [1]) | herbicidal effect on D: Chinese sprangletop (Chinese sprangletop) | herbicidal effect on E: rice flat sedge (rice flat sedge) | herbicidal effect on F: southern crabgrass (southern crabgrass [2]) | herbicidal effect on G: green foxtail (green foxtail [3]) | herbicidal effect on H: barnyard grass (barnyard grass [4]) | herbicidal effect on I: wild oat (wild oat [5]) | herbicidal effect on J: blackgrass (blackgrass [6]) | herbicidal effect on K: Italian ryegrass (Italian ryegrass [7]) | herbicidal effect on L: windgrass (windgrass [8]) | herbicidal effect on M: velvetleaf (velvetleaf [9]) | herbicidal effect on N: redroot pigweed (redroot pigweed [10]) | herbicidal effect on O: lambsquarters (lambsquarters [11]) | herbicidal effect on P: chickweed (chickweed [12]) | herbicidal effect on R: persian speedwell (persian speedwell [13]) | F: southern crabgrass, herbicidal effect (criteria 0-5) (southern crabgrass [14]) | G: green foxtail, herbicidal effect (criteria 0-5) (green foxtail [15]) | other results
1 | CSCc1ccc(-c2sc3ccc(F)cc3c2-c2c(O)c(C)nn(C)c2=O)cc1 [2-317] | 3 (Herbicidal rate of 40% or more and less than 70%) | 0 (Herbicidal rate of 5% or less (almost no effect)) | 0 (Herbicidal rate of 5% or less (almost no effect)) | 5 (Herbicidal rate of 90% or more (almost completely withered)) | 2 (Herbicidal rate of 20% or more and less than 40%) | 5 (Herbicidal rate of 90% or more (almost completely withered)) | 4 (Herbicidal rate of 70% or more and less than 90%) | 4 (Herbicidal rate of 70% or more and less than 90%) | 5 (Herbicidal rate of 90% or more (almost completely withered)) | 0 (Herbicidal rate of 5% or less (almost no effect)) | 1 (Herbicidal rate of 5% or more and less than 20%) | 4 (Herbicidal rate of 70% or more and less than 90%) | 0 (Herbicidal rate of 5% or less (almost no effect)) | 4 (Herbicidal rate of 70% or more and less than 90%) | 5 (Herbicidal rate of 90% or more (almost completely withered)) | 5 (Herbicidal rate of 90% or more (almost completely withered)) | 0 (Herbicidal rate of 5% or less (almost no effect)) | 3 (Herbicidal rate of 40% or more and less than 70%) | 5 (Herbicidal rate of 90% or more (almost completely withered)) | 5 (Herbicidal rate of 90% or more (almost completely withered)) | H: barnyard grass, herbicidal effect (criteria 0-5) (barnyard grass [16]): 5 (Herbicidal rate of 90% or more (almost completely withered)); I: wild oat, herbicidal effect (criteria 0-5) (wild oat [17]): 5 (Herbicidal rate of 90% or more (almost completely withered)); J: blackgrass, herbicidal effect (criteria 0-5) (blackgrass [18]): 4 (Herbicidal rate of 70% or more and less than 90%); K: Italian ryegrass, herbicidal effect (criteria 0-5) (Italian ryegrass [19]): 5 (Herbicidal rate of 90% or more (almost completely withered)); L: windgrass, herbicidal effect (criteria 0-5) (windgrass [20]): 5 (Herbicidal rate of 90% or more (almost completely withered)); M: velvetleaf, herbicidal effect (criteria 0-5) (velvetleaf [21]): 5 (Herbicidal rate of 90% or more (almost completely withered)); N: redroot pigweed, herbicidal effect (criteria 0-5) (redroot pigweed [22]): 5 (Herbicidal rate of 90% or more (almost completely withered)); O: lambsquarters, herbicidal effect (criteria 0-5) (lambsquarters [23]): 5 (Herbicidal rate of 90% or more (almost completely withered)); P: chickweed, herbicidal effect (criteria 0-5) (chickweed [24]): 5 (Herbicidal rate of 90% or more (almost completely withered)); R: persian speedwell, herbicidal effect (criteria 0-5) (persian speedwell [25]): 5 (Herbicidal rate of 90% or more (almost completely withered))
2 | CCSCc1ccc(-c2sc3ccc(F)cc3c2-c2c(O)c(C)nn(C)c2=O)cc1 [2-319] | 4 (Herbicidal rate of 70% or more and less than 90%) | 2 (Herbicidal rate of 20% or more and less than 40%) | 3 (Herbicidal rate of 40% or more and less than 70%) | 5 (Herbicidal rate of 90% or more (almost completely withered)) | 4 (Herbicidal rate of 70% or more and less than 90%) | 5 (Herbicidal rate of 90% or more (almost completely withered)) | 4 (Herbicidal rate of 70% or more and less than 90%) | 4 (Herbicidal rate of 70% or more and less than 90%) | 3 (Herbicidal rate of 40% or more and less than 70%) | 0 (Herbicidal rate of 5% or less (almost no effect)) | 0 (Herbicidal rate of 5% or less (almost no effect)) | 4 (Herbicidal rate of 70% or more and less than 90%) | 1 (Herbicidal rate of 5% or more and less than 20%) | 3 (Herbicidal rate of 40% or more and less than 70%) | 4 (Herbicidal rate of 70% or more and less than 90%) | 3 (Herbicidal rate of 40% or more and less than 70%) | 0 (Herbicidal rate of 5% or less (almost no effect)) | 4 (Herbicidal rate of 70% or more and less than 90%) | 5 (Herbicidal rate of 90% or more (almost completely withered)) | 5 (Herbicidal rate of 90% or more (almost completely withered)) | H: barnyard grass, herbicidal effect (criteria 0-5) (barnyard grass [16]): 5 (Herbicidal rate of 90% or more (almost completely withered)); I: wild oat, herbicidal effect (criteria 0-5) (wild oat [17]): 4 (Herbicidal rate of 70% or more and less than 90%); J: blackgrass, herbicidal effect (criteria 0-5) (blackgrass [18]): 4 (Herbicidal rate of 70% or more and less than 90%); K: Italian ryegrass, herbicidal effect (criteria 0-5) (Italian ryegrass [19]): 4 (Herbicidal rate of 70% or more and less than 90%); L: windgrass, herbicidal effect (criteria 0-5) (windgrass [20]): 4 (Herbicidal rate of 70% or more and less than 90%); M: velvetleaf, herbicidal effect (criteria 0-5) (velvetleaf [21]): 5 (Herbicidal rate of 90% or more (almost completely withered)); N: redroot pigweed, herbicidal effect (criteria 0-5) (redroot pigweed [22]): 5 (Herbicidal rate of 90% or more (almost completely withered)); O: lambsquarters, herbicidal effect (criteria 0-5) (lambsquarters [23]): 5 (Herbicidal rate of 90% or more (almost completely withered)); P: chickweed, herbicidal effect (criteria 0-5) (chickweed [24]): 5 (Herbicidal rate of 90% or more (almost completely withered)); R: persian speedwell, herbicidal effect (criteria 0-5) (persian speedwell [25]): 5 (Herbicidal rate of 90% or more (almost completely withered))
